The record followed here is ChEMBL document CHEMBL1926541, “Molecular docking of γ-sitosterol with some targets related to diabetes” (2012).

Common to all, as to format: functional
Experiment [1] concerns Rattus norvegicus. Nature of the experiment: Antidiabetic activity in STZ-induced diabetic rat model assessed as increase in liver glycogen at 20 mg/kg, po qd for 21 days.
In experiment [2] the test system is Rattus norvegicus. Nature of the experiment: Antidiabetic activity in STZ-induced diabetic rat model assessed as increase in glucose 6 phosphate dehydrogenase at 20 mg/kg, po qd for 21 days.
For experiment [3], the system named is Rattus norvegicus. Nature of the experiment: Antidiabetic activity in STZ-induced diabetic rat model assessed as reduction in glucose-6-phosphatase at 20 mg/kg, po qd for 21 days. Also on record: scale not given: the % may be the effect or the level left.
The test system of experiment [4] is Rattus norvegicus. Nature of the experiment: Antidiabetic activity in STZ-induced diabetic rat model assessed as increase in plasma insulin level at 20 mg/kg, po qd for 21 days.
Experiment [5] relates to Rattus norvegicus. The experiment in a line: Antidiabetic activity in STZ-induced diabetic rat model assessed as increase in muscle glycogen at 20 mg/kg, po qd for 21 days.
Experiment [6] has as its system Rattus norvegicus. The experiment in a line: Antidiabetic activity in STZ-induced diabetic rat model assessed as reduction in glycosylated haemoglobin at 20 mg/kg, po qd for 21 days. On the set-up: scale not given: the % may be the effect or the level left.

With `CC[C@H](CC[C@@H](C)[C@H]1CC[C@H]2[C@@H]3CC=C4C[C@@H](O)CC[C@]4(C)[C@H]3CC[C@]12C)C(C)C` [BETA-SITOSTEROL], the Activity turned out to be 77.15% in experiment [1]; 38.52% in experiment [2]; 40.07% in experiment [3]; 69.05% in experiment [4]; 76.86% in experiment [5]; 66.96% in experiment [6].
